Experimental data: the NIST ThermoML archive (doi:10.1021/je100610v)
Numbers after ± are expanded uncertainties.

Legend:
[1] = 101 kPa, Liquid; for speed of sound: Pulse-echo method
[2] = molar heat capacity at constant pressure; conditions: 101 kPa, Liquid
[3] = xn = mol fraction of the nth substance listed; conditions: 101 kPa, Liquid, x2 = 0; for speed of sound: Pulse-echo method

ClCCCCCCCl [1,6-dichlorohexane] gave a speed of sound ([1]; 293.01 K) of 1337.8 ± 2.1 m/s, a mass density ([1]; 293.15 K) of 1068.33 ± 1.3 kg/m3 and a mass density ([1]; 298.15 K) of 1063.61 ± 1.2 kg/m3. It also gave a speed of sound ([1]; 298.18 K) of 1319.7 ± 2.1 m/s, a mass density ([1]; 303.15 K) of 1058.87 ± 1.2 kg/m3 and a speed of sound ([1]; 303.15 K) of 1302.4 ± 2.1 m/s. For the same compound, the speed of sound ([1]; 308.14 K) was 1285 ± 2.1 m/s, the mass density ([1]; 308.15 K) was 1054.14 ± 1.2 kg/m3 and the mass density ([1]; 313.15 K) was 1049.39 ± 1.2 kg/m3. For the same compound, the speed of sound ([1]; 313.23 K) was 1267.4 ± 2.1 m/s, the “molar heat capacity at constant pressure” value ([2]; 293.15 K) was 239.21 ± 1.9 J/K/mol and the “molar heat capacity at constant pressure” value ([2]; 294.15 K) was 239.5 ± 1.9 J/K/mol. The “molar heat capacity at constant pressure” value ([2]; 295.15 K) was 239.69 ± 1.9 J/K/mol, the “molar heat capacity at constant pressure” value ([2]; 296.15 K) was 240.02 ± 1.9 J/K/mol and the “molar heat capacity at constant pressure” value ([2]; 297.15 K) was 240.35 ± 1.9 J/K/mol. The “molar heat capacity at constant pressure” value ([2]; 298.15 K) was 240.64 ± 1.9 J/K/mol, the “molar heat capacity at constant pressure” value ([2]; 299.15 K) was 240.85 ± 1.9 J/K/mol and the “molar heat capacity at constant pressure” value ([2]; 300.15 K) was 241.15 ± 1.9 J/K/mol. The “molar heat capacity at constant pressure” value ([2]; 301.15 K) was 241.46 ± 1.9 J/K/mol, the “molar heat capacity at constant pressure” value ([2]; 302.15 K) was 241.8 ± 1.9 J/K/mol and the “molar heat capacity at constant pressure” value ([2]; 303.15 K) was 242.06 ± 1.9 J/K/mol. The “molar heat capacity at constant pressure” value ([2]; 304.15 K) was 242.34 ± 1.9 J/K/mol, the “molar heat capacity at constant pressure” value ([2]; 305.15 K) was 242.62 ± 1.9 J/K/mol and the “molar heat capacity at constant pressure” value ([2]; 306.15 K) was 242.83 ± 1.9 J/K/mol. For the same compound, the “molar heat capacity at constant pressure” value ([2]; 307.15 K) was 243.21 ± 1.9 J/K/mol, the “molar heat capacity at constant pressure” value ([2]; 308.15 K) was 243.49 ± 1.9 J/K/mol and the “molar heat capacity at constant pressure” value ([2]; 309.15 K) was 243.73 ± 1.9 J/K/mol. For the same compound, the “molar heat capacity at constant pressure” value ([2]; 310.15 K) was 244 ± 1.9 J/K/mol, the “molar heat capacity at constant pressure” value ([2]; 311.15 K) was 244.35 ± 1.9 J/K/mol and the “molar heat capacity at constant pressure” value ([2]; 312.15 K) was 244.68 ± 1.9 J/K/mol. The “molar heat capacity at constant pressure” value ([2]; 313.15 K) was 244.91 ± 1.9 J/K/mol.

Work on CCCCCCC [heptane] yielded a speed of sound ([1]; 292.7 K) of 1154.1 ± 0.77 m/s, a mass density ([1]; 293.15 K) of 683.79 ± 0.93 kg/m3 and a speed of sound ([1]; 298 K) of 1131.1 ± 0.76 m/s. It also gave a mass density ([1]; 298.15 K) of 679.56 ± 0.94 kg/m3, a speed of sound ([1]; 302.98 K) of 1109.5 ± 0.75 m/s and a mass density ([1]; 303.15 K) of 675.3 ± 0.95 kg/m3. For the same compound, the speed of sound ([1]; 308.06 K) was 1087.4 ± 0.75 m/s, the mass density ([1]; 308.15 K) was 671.02 ± 0.96 kg/m3 and the mass density ([1]; 313.15 K) was 666.71 ± 0.97 kg/m3. The speed of sound ([1]; 313.45 K) was 1064.3 ± 0.74 m/s.

With CCCCCCC [heptane] + ClCCCCCCCl the speed of sound ([3]; 292.7 K) was 1154.1 ± 0.77 m/s, the mass density ([3]; 293.15 K) was 683.79 ± 0.93 kg/m3 and the speed of sound ([3]; 298 K) was 1131.1 ± 0.76 m/s. The mass density ([3]; 298.15 K) was 679.56 ± 0.94 kg/m3, the speed of sound ([3]; 302.98 K) was 1109.5 ± 0.75 m/s and the mass density ([3]; 303.15 K) was 675.3 ± 0.95 kg/m3. It also gave a speed of sound ([3]; 308.06 K) of 1087.4 ± 0.75 m/s, a mass density ([3]; 308.15 K) of 671.02 ± 0.96 kg/m3 and a mass density ([3]; 313.15 K) of 666.71 ± 0.97 kg/m3. It also gave a speed of sound ([3]; 313.45 K) of 1064.3 ± 0.74 m/s.
